The source of these data is publication PMC6208443 (Nature Communications, 2018).

Common to all, as to assay type: binding, Arabidopsis thaliana
Common to all, as to details: result in words

The subject of one assay is CMT3. The assay can be described thus: Peptide affinity purification and mass spectrometry, CMT3. The method, then: (§1) To extract the nuclear proteins for peptide affinity purification, 1 g of wild-type Arabidopsis flowers was harvested and ground in liquid nitrogen. […] The filtrates were centrifuged at 2000 g for 15 min at 4 °C to precipitate the nuclei. Nuclear pellets were washed two times with 1 ml of Honda buffer and then were resuspended in 600 μl of Nuclei Lysis Buffer (50 mM Tris-HCl pH 8.0, 150 mM NaCl, 1% NP40, 0.5 mM DTT, 1 mM PMSF, Roche protease inhibitor cocktail). After sonication, nuclei extracts were centrifuged at 20,000 g for 10 min at 4 °C. The supernatant was incubated with 2 μg of biotinylated histone peptides and Streptavidin Magnetic Beads (Thermo Scientific, 88816) for 3 h with rotation at 4 °C. […] After incubation, beads were washed three times with wash buffer 1 (320 mM NaCl, 50 mM Tris-HCl pH 8.0, 0.5% NP40), and three times with wash buffer 2 (150 mM NaCl, 50 mM Tris-HCl pH 8.0).
(§2) For LC-MS/MS analysis, IP beads with captured proteins were lysed in 12 mM sodium deoxycholate (SDC)-sodium lauroyl sarcosinate (SLS): 100 mM Tris-HCl (pH 8.5), 12 mM SDC, and 12 mM SLS. Proteins were reduced and alkylated with 10 mM tris-(2-carboxyethyl) phosphine and 40 mM chloroacetamide at 95 °C for 5 min. The supernatant containing reduced and alkylated proteins was transferred into a new Eppendorf tube and diluted fivefold with 50 mM triethylammonium hydrogen carbonate buffer and digested with 500 ng trypsin (Sigma) overnight. The SDC and SLS were removed by adding 100% acetyl acetate in a ratio 1:1 (vol/vol) sample to acetyl acetate volume ratio. Samples were acidified with 10% trifluoroacetic acid to pH ~3, and desalted by a custom-made stage tip with a styrene divinyl benzene (SDB-XC) membrane (3 M). The dried peptides were resuspended in 30 μL of 0.3% formic acid (FA) with 3% acetonitrile (ACN), quantified by BCA assay (Thermo Fisher Scientific), and injected into an Easy-nLC 1000 (Thermo Fisher Scientific). Peptides were separated on a 45 cm in-house packed column (360 μm OD × 75 μm ID) containing C18 resin (2.2 μm, 100 Å, Michrom Bioresources) with a 30 cm column heater (Analytical Sales and Services) set at 60 °C. The mobile phase buffer consisted of 0.1% FA in ultra-pure water (buffer A) with an eluting buffer of 0.1% FA in 80% ACN (buffer B) run over a linear 65 min gradient of 5%-30% buffer B at a flow rate of 250 nL/min. The Easy-nLC 1000 was coupled online with a Velos Pro LTQ-Orbitrap mass spectrometer (Thermo Fisher Scientific). […] Search was performed with full tryptic digestion and allowed a maximum of two missed cleavages on the peptides analyzed from the sequence database. […]

A further assay relates to CMT2. The assay can be described thus: Peptide affinity purification and mass spectrometry, CMT2. The method, then: as §1, §2
For a further assay, the system named is EDM2. Kind of assay: Peptide affinity purification and mass spectrometry, EDM2. The method, then: as §1
(§3) For LC-MS/MS analysis, IP beads with captured proteins were lysed in 12 mM sodium deoxycholate (SDC)-sodium lauroyl sarcosinate (SLS): 100 mM Tris-HCl (pH 8.5), 12 mM SDC, and 12 mM SLS. Proteins were reduced and alkylated with 10 mM tris-(2-carboxyethyl) phosphine and 40 mM chloroacetamide at 95 °C for 5 min. The supernatant containing reduced and alkylated proteins was transferred into a new Eppendorf tube and diluted fivefold with 50 mM triethylammonium hydrogen carbonate buffer and digested with 500 ng trypsin (Sigma) overnight. The SDC and SLS were removed by adding 100% acetyl acetate in a ratio 1:1 (vol/vol) sample to acetyl acetate volume ratio. Samples were acidified with 10% trifluoroacetic acid to pH ~3, and desalted by a custom-made stage tip with a styrene divinyl benzene (SDB-XC) membrane (3 M). The dried peptides were resuspended in 30 μL of 0.3% formic acid (FA) with 3% acetonitrile (ACN), quantified by BCA assay (Thermo Fisher Scientific), and injected into an Easy-nLC 1000 (Thermo Fisher Scientific). Peptides were separated on a 45 cm in-house packed column (360 μm OD × 75 μm ID) containing C18 resin (2.2 μm, 100 Å, Michrom Bioresources) with a 30 cm column heater (Analytical Sales and Services) set at 60 °C. The mobile phase buffer consisted of 0.1% FA in ultra-pure water (buffer A) with an eluting buffer of 0.1% FA in 80% ACN (buffer B) run over a linear 65 min gradient of 5%-30% buffer B at a flow rate of 250 nL/min. The Easy-nLC 1000 was coupled online with a Velos Pro LTQ-Orbitrap mass spectrometer (Thermo Fisher Scientific). The mass spectrometer was operated in the data-dependent mode in which a full MS scan (from m/z 350–1500 with the resolution of 30,000 at 400 m/z) was followed by the 10 most intense ions being subjected to collision-induced dissociation (CID) fragmentation. […]

The subject of a further assay is AGDP1. Kind of assay: Peptide affinity purification and mass spectrometry, AGDP1. The method, then: as §1, §3

For “H3(1-21): synthesized biotinylated H3(1-21) peptide, EMD Millipore”, the “presence in pull-down products” value in the assay on CMT3, in the assay with CMT2 and with EDM2 was “not in H3 pull-down products” each time. Further, the “identification from pull-down samples” value with AGDP1 was “not from the H3 pull-down samples”.
With “H3(1-21)K9me1: synthesized biotinylated H3(1-21)K9me1 peptide, EMD Millipore”, the “presence in pull-down products” value in the assay with CMT3, with CMT2 and in the assay on EDM2 was “present” throughout. Besides, the “identification from pull-down samples” value with AGDP1 is reported as “identified”.
As for “H3(1-21)K9me2: synthesized biotinylated H3(1-21)K9me2 peptide, EMD Millipore”, the “presence in pull-down products” value with CMT3, with CMT2 and in the assay with EDM2 was “present” throughout. Also, the “identification from pull-down samples” value in the assay with AGDP1 is “identified”.
For “H3(1-21)K9me3: synthesized biotinylated H3(1-21)K9me3 peptide, EMD Millipore”, the “presence in pull-down products” value in the assay on CMT3, with CMT2 and with EDM2 was “present” in each case. Besides, the “identification from pull-down samples” value in the assay on AGDP1 was “identified”.
